We go through 13 compounds from ChEMBL document CHEMBL5465560, “Selectivity Literature for EUbOPEN Chemogenomic Library” (2024).

For test [1], the target named is Casein kinase I isoform gamma-2 (Homo sapiens) (UniProt P78368). The test can be described thus: Selectivity interaction (Kinase panel (Z-LYTE Assay)) EUB0001632a CSNK1G2. Conditions: at 10 µM.
The target in test [2] is Serine/threonine-protein kinase SIK3 (Homo sapiens) (UniProt Q9Y2K2). The test can be described thus: Selectivity interaction (KinomeScan (DiscoverX)) EUB0000595a SIK3. Particulars: at 10 µM.
Test [3] has as its target Death-associated protein kinase 3 (Homo sapiens) (UniProt O43293). The test can be described thus: Selectivity interaction (KinomeScan (DiscoverX)) EUB0001619a DAPK3. Conditions: at 1 µM.
Test [4] addresses T1, Serine/threonine-protein kinase N1 (Homo sapiens, UniProt Q16512). As to the kind of experiment: Selectivity interaction (KinomeScan (DiscoverX)) EUB0000695a PKN1. Particulars: at 100 nM.
Test [5] has as its target Vascular endothelial growth factor receptor 2 (Homo sapiens, UniProt P35968). As to the kind of experiment: Selectivity interaction (SelectScreen profiling (Invitrogen)) EUB0000607a KDR. Particulars: at 2 µM.
Test [6] deals with G protein-coupled receptor kinase 4 (Homo sapiens) (UniProt P32298). As to the kind of experiment: Selectivity interaction (SelectScreen profiling (Invitrogen)) EUB0000607a GRK4. Particulars: at 2 µM.
Test [7] deals with Tyrosine-protein kinase ABL2 (Homo sapiens, UniProt P42684). As to the kind of experiment: Selectivity interaction (KinomeScan (DiscoverX)) EUB0000607a ABL2. Particulars: at 10 µM.
Chain of Tyrosine-protein kinase ABL2 (P42684 whole entry): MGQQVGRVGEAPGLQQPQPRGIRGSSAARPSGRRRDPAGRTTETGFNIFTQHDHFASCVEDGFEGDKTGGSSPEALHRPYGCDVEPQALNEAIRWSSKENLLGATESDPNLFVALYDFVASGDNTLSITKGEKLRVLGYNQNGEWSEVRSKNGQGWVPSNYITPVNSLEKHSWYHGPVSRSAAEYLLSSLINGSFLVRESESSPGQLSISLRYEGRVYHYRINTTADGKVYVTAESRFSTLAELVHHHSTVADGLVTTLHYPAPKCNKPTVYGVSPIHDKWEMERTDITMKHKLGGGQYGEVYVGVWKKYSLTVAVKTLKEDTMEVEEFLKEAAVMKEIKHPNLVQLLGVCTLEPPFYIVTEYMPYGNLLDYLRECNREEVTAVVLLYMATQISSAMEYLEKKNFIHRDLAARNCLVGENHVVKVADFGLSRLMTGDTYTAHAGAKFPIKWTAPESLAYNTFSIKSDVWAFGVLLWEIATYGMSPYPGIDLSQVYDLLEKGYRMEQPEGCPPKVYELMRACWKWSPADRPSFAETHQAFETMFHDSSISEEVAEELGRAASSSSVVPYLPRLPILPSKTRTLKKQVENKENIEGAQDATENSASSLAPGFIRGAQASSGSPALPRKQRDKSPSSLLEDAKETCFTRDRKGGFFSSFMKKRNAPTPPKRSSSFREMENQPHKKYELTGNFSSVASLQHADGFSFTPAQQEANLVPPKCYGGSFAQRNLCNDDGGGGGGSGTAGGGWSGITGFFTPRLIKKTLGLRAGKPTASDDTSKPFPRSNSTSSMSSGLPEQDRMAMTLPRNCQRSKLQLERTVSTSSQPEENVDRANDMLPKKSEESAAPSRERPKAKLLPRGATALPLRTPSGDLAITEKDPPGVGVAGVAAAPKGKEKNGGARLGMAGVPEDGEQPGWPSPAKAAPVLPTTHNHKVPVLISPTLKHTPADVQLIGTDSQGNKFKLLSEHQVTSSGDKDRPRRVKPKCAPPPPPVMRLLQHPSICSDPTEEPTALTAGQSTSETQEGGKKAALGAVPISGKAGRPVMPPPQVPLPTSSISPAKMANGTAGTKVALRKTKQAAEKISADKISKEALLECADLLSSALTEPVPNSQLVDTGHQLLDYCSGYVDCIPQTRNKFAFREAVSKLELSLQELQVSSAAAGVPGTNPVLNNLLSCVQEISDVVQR
The target in test [8] is T1, Serine/threonine-protein kinase N1. As to the kind of experiment: Selectivity interaction (KinomeScan (DiscoverX)) EUB0000607a PKN1. Particulars: at 10 µM.
The target of test [9] is Dual specificity mitogen-activated protein kinase kinase 1 (Homo sapiens, UniProt Q02750). Particulars: at 10 µM.
Test [10] has as its target T2, Ribosomal protein S6 kinase alpha-3 (Homo sapiens, UniProt P51812). As to the kind of experiment: Selectivity interaction (ActivX KiNativ screen (kinase selectivity in THP-1 cell lysates)) EUB0000639a RPS6KA3. The class given is subcellular. Particulars: lysate.
Test [11] deals with T3, Homeodomain-interacting protein kinase 4 (Homo sapiens) (UniProt Q8NE63).
T3 sequence (whole entry): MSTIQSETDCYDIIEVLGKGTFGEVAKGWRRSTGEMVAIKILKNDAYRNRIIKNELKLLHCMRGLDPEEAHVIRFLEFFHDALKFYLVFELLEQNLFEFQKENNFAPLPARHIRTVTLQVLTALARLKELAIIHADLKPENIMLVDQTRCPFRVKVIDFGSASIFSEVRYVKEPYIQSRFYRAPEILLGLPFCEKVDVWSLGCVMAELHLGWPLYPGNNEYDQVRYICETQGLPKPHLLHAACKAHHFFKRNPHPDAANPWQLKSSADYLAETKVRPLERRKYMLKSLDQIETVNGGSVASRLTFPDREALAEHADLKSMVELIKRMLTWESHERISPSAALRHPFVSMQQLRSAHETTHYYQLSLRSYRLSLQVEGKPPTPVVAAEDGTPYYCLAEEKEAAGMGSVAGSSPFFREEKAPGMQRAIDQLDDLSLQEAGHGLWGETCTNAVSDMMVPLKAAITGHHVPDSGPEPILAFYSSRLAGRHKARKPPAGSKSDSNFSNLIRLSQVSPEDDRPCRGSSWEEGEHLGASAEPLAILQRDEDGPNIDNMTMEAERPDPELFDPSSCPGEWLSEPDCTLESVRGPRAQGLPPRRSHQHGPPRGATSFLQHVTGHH
The test can be described thus: Selectivity interaction (Kinase panel (Invitrogen)) EUB0000639a HIPK4. Conditions: at 200 nM.

Test [12] has as its target Serine/threonine-protein kinase PAK 1 (Homo sapiens) (UniProt Q13153). As to the kind of experiment: Selectivity interaction (KinomeScan (DiscoverX)) EUB0000045b PAK1.
In test [13] the target is cAMP-dependent protein kinase catalytic subunit alpha (Homo sapiens, UniProt P17612). The test can be described thus: Selectivity interaction (Kinase panel (literature)) EUB0001199aCl PRKACA. Particulars: at 1 µM.
In test [14] the target is Mitogen-activated protein kinase 14 (Homo sapiens, UniProt Q16539).
In test [15] the target is Cyclin-dependent kinase 3 (Homo sapiens) (UniProt Q00526). The test can be described thus: Selectivity interaction (KinomeScan (DiscoverX)) EUB0001049a CDK3. Conditions: at 1 µM.
Chain of Cyclin-dependent kinase 3 (Homo sapiens) (Q00526 whole entry, looked up): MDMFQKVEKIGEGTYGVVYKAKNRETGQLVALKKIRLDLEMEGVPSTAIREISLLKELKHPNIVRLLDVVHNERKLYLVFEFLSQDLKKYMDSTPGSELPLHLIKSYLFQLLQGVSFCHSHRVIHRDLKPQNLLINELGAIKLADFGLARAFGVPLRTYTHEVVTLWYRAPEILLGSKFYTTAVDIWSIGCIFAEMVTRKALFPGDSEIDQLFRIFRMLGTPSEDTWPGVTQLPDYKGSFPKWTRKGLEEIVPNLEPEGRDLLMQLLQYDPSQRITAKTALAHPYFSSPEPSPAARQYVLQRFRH
In test [16] the target is T2, Ribosomal protein S6 kinase alpha-3. As to the kind of experiment: Selectivity interaction (KinomeScan (DiscoverX)) EUB0001049a RPS6KA3. Conditions: at 1 µM.
In test [17] the target is Serine/threonine-protein kinase Nek6 (Homo sapiens) (UniProt Q9HC98). The test can be described thus: Selectivity interaction (KinomeScan (DiscoverX)) EUB0000655a NEK6. Particulars: at 10 µM.
The target of test [18] is T4, Serine/threonine-protein kinase Nek9 (Homo sapiens) (UniProt Q8TD19).
T4 sequence (whole entry): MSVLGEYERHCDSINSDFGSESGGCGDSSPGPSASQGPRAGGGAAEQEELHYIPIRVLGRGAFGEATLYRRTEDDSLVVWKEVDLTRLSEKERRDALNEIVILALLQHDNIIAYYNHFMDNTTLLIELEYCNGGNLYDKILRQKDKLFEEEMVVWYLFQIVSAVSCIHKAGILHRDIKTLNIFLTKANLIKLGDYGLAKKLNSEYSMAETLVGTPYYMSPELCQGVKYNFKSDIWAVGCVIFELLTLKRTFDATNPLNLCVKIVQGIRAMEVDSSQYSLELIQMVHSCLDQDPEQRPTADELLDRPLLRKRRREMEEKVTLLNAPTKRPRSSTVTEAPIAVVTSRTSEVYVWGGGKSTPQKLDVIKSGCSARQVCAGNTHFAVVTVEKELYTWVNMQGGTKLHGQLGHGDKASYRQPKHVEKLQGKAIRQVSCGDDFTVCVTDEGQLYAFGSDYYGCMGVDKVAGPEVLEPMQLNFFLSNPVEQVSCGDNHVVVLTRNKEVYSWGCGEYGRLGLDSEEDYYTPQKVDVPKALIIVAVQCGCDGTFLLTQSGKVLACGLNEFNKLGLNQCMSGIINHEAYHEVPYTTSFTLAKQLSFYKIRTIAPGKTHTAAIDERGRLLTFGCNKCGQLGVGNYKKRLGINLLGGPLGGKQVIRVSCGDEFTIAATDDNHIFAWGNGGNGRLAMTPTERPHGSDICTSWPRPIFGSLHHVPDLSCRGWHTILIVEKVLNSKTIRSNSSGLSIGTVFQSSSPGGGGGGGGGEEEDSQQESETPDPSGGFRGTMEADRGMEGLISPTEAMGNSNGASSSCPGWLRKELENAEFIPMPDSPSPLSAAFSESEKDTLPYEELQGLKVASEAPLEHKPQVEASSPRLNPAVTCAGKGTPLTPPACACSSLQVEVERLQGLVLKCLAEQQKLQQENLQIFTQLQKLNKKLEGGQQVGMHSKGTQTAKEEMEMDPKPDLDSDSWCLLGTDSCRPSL
As to the kind of experiment: Selectivity interaction (KinomeScan (DiscoverX)) EUB0001079a NEK9. Particulars: at 1 µM.

In test [19] the target is Serine/threonine-protein kinase MRCK alpha (Homo sapiens) (UniProt Q5VT25). The test can be described thus: Selectivity interaction (KinomeScan (DiscoverX)) EUB0001079a CDC42BPA. Conditions: at 1 µM.

T2 sequence (P51812 whole entry): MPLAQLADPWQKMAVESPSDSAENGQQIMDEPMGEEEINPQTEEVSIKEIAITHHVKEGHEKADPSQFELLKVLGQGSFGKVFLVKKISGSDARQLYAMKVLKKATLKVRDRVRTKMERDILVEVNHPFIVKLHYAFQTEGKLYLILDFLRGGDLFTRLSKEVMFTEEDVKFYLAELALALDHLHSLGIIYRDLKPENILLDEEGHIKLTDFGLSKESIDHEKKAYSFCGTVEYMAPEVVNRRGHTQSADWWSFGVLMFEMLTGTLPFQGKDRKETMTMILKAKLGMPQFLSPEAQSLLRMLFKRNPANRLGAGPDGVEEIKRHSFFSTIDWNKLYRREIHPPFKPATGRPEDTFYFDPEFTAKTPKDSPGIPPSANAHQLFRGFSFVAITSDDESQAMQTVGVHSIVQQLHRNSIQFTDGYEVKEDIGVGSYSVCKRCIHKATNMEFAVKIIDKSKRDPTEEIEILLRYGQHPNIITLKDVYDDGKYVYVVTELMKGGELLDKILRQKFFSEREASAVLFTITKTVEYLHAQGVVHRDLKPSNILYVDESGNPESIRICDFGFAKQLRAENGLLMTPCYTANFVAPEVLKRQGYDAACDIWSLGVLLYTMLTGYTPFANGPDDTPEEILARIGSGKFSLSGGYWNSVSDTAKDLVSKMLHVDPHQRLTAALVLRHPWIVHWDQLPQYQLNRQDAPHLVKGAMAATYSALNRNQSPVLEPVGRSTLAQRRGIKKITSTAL
Chain of Serine/threonine-protein kinase PAK 1 (Homo sapiens) (Q13153 whole entry): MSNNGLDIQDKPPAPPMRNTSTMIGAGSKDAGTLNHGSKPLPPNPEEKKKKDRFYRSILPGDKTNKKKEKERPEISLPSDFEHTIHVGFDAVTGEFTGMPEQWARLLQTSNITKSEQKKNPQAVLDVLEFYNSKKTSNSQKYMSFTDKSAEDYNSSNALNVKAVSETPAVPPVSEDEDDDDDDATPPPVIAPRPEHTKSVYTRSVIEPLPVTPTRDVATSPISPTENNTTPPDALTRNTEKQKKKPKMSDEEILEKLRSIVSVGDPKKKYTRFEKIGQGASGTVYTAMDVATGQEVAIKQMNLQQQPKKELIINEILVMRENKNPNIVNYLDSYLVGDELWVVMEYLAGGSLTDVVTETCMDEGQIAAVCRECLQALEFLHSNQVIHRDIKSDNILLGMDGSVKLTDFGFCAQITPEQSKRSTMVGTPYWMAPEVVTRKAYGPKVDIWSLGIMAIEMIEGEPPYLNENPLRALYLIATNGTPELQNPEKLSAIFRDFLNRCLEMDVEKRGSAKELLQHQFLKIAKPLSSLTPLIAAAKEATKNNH
T1 sequence (Q16512 2-942 limits assumed): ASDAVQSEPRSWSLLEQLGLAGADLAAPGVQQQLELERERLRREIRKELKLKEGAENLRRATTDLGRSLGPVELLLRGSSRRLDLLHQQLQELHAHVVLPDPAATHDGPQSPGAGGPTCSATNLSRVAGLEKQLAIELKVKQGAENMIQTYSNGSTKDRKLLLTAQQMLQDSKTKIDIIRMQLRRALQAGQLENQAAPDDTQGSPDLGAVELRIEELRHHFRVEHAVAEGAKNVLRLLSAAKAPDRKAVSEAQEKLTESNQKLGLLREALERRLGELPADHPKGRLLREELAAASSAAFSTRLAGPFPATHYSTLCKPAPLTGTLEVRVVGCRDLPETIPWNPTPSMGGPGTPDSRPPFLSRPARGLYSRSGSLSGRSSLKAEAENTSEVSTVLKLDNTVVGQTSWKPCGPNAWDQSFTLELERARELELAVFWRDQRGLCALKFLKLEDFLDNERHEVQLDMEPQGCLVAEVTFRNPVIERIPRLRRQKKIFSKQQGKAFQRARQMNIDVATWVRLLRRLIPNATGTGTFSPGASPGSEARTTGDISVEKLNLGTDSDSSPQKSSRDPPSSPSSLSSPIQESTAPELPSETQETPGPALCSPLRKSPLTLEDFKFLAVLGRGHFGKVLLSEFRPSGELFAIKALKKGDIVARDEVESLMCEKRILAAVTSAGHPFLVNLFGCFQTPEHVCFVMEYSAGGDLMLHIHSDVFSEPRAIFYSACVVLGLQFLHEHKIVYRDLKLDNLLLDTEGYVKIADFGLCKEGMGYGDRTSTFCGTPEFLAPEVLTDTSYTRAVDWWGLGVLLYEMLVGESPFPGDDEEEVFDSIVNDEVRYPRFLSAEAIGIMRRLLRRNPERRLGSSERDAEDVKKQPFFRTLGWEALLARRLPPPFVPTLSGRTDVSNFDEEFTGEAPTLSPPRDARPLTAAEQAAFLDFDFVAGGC
Chain of Vascular endothelial growth factor receptor 2 (P35968 whole entry): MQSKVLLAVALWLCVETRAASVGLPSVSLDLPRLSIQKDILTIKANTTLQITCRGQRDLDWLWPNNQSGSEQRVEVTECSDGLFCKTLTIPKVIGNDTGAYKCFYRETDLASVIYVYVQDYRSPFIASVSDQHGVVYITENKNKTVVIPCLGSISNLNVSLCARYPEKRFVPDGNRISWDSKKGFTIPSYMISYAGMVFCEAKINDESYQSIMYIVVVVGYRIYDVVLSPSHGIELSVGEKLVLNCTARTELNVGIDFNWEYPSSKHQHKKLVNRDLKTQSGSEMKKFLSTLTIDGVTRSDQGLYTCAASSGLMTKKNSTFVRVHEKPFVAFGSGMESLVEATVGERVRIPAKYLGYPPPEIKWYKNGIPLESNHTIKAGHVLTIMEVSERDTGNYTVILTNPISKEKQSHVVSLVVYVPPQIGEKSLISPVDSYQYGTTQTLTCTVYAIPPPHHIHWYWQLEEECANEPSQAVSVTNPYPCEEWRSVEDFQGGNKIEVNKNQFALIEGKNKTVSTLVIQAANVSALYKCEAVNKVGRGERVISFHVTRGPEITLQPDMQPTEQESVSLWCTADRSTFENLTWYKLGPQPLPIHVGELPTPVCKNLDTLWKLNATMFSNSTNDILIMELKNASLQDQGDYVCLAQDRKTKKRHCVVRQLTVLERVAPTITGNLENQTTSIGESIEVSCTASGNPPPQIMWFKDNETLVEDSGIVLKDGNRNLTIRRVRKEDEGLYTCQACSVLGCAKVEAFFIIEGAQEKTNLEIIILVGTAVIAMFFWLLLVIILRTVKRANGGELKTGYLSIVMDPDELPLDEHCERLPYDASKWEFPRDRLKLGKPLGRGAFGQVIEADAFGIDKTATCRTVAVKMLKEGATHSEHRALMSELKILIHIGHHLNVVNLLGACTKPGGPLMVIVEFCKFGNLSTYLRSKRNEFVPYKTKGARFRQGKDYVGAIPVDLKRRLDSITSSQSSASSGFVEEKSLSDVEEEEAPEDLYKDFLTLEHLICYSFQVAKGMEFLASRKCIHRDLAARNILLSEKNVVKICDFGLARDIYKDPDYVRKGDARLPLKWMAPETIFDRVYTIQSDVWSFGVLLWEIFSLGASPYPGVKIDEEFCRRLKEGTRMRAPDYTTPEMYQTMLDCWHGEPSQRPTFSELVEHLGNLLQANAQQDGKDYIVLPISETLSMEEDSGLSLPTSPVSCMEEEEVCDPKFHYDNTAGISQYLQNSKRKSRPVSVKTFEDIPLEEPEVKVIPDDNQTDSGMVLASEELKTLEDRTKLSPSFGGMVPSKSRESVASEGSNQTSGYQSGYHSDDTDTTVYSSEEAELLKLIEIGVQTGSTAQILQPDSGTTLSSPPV

Take `Cn1cc(-n2cnc3c(NCc4nc5cc(Cl)c(Cl)cc5[nH]4)nc(N4CCOCC4)nc32)cn1`: the % of control in test [1] was determined as 13.1%.
Regarding `COCC(=O)NC/C=C/c1ccc2ncnc(Nc3ccc(Oc4ccc(C)nc4)c(C)c3)c2c1` [CP-724714], the % of control in test [2] amounted to 76%.
For `N#Cc1cccc(-c2c[nH]c3ncnc(N4CCOCC4)c23)c1`, the % of control in test [3] amounted to 100%.
`Cc1cc(F)c(C(=O)Nc2cccc(-c3nncn3C(C)C)n2)cc1-n1cnc(C2CC2)c1` came in with a % of control in [4] of 83%.
`CNC(=O)Nc1ccc(-c2nc(N3CC4CCC(C3)O4)c3cnn(C4CCC5(CC4)OCCO5)c3n2)cc1`: the % of inhibition is 7% in [5] and -4% in [6]. For the same compound, the % of control in test [7] came out at 84%; in test [8], 100%.
`Cc1cc([C@@H](C)Nc2ccccc2C(=O)O)c2nc(N3CCOCC3)cc(=O)n2c1` [AZD-6482]: the % of control in test [9] was 89%.
Turning to `CC[C@@H]1[C@H](F)C(=O)N[C@@H]1COc1nccc2cc(C(N)=O)c(OC)cc12` [ZIMLOVISERTIB], the % of inhibition turned out to be 16.9% in [10] (at 0.01 µM); 12.4% in test [10] (at 0.04 µM); 10.3% in [10] (at 0.2 µM); 8.6% in test [10] (at 1 µM); 11.7% in [10] (at 5 µM); 5.27% in test [11].
On to `C=CC(=O)Nc1cc(-n2c(=O)ccc3cnc4ccc(-c5ccc(NS(C)(=O)=O)cc5)cc4c32)ccc1C`, for which the % of control was determined as 86% in test [12] (at 1 µM) and 62% in test [12] (at 10 µM).
Take `CN1Cc2nccc(-c3cn(C)nc3-c3ccc(F)cc3)c2C1=O`: the % of inhibition in test [13] stood at 2%.
In the case of `CCc1cccc(CC)c1NC(=O)c1nn(C)c2c1CCc1cnc(Nc3ccc(C(=O)NC4CCN(C)CC4)cc3OC(F)(F)F)nc1-2`, in [14], the half-inhibitory concentration (IC50) (in general, the point on the concentration scale where inhibition reaches its midpoint) is over 10 µM.
Regarding `COc1cc(Nc2nc(C)cc(-c3cnn4nc(OC)ccc34)n2)cc(C(F)(F)F)c1`, the % of control in test [15] worked out at 90%; in test [16], 98%.
In turn, `CN(C)CCOc1ccc(-c2nc(-c3ccncc3)c(-c3ccc4c(c3)CC/C4=N\O)[nH]2)cc1` registered a % of control in test [17] of 100%.
With `Nc1cnc(N2CCc3cc(S(=O)(=O)Nc4c(F)cc(Cl)cc4F)cc(N4CCCC4=O)c32)nc1` [TP-020n], the % of control in test [18] turned out to be 98%; in [19] it was 100%.
